# Several values for one entry are separate records, joined by “and”; a condition that tells them apart may be missing. Identical values can stand only once. Marks after values point to notes of the source that are not given here.
# Legend:
# rainbow trout = test: In vivo bioconcentration experiment with a mixture of anionic surfactants, flow-through aquaria, 10 °C, pH 7.8; details: for Log BCF: determined with measured concentrations in water; for Concentration in fish: individual fish; for diffusion coefficient (D) in the epithelial membrane of the gills: in vivo; for BCF (kinetic): kinetic BCF from measured concentrations in water
# Method in brief: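 Juvenile rainbow trout exposed to a 10-surfactant mixture for 4 days, then 7-day depuration, in flow-through aquaria at 10 °C, pH 7.8. Whole-fish homogenates and water analysed by LC-MS/MS against BEHP internal standard. kU, kT and BCF (=kU/kT) estimated by joint Bayesian model including water-concentration uncertainty.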
# [1] = Baseline screening BCF (0.0125 DMLW, equilibrium partitioning, no biotransformation); details: for Log baseline BCF: determined as 0.0125 DMLW
# Method in brief: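 Calculated rather than measured: baseline screening BCF derived as 0.0125 × DMLW (membrane-lipid/water distribution ratio), assuming equilibrium partitioning and no biotransformation. Expressed as log L kg-1 wet weight.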
# [2] = cited from earlier work; for log DMW, membrane-water distribution ratio: marked * = measured, used for IVIVE, same values as Table 3; for log DMLW: measurement from Droge
# [3] = determined using nominal concentrations in water
# [4] = from measured concentrations in water, Bayesian estimate, 95% credible interval in brackets
# [5] = 95% credible interval in brackets
# [6] = measured concentrations in water, simpler estimation method (Text S3), 95% confidence intervals in brackets
Structure (SMILES),BCF (rainbow trout; [3]) [L kg-1 ww],Elimination rate constant kT (rainbow trout; [3]) [h⁻¹],Uptake rate constant kU (rainbow trout; [3]) [L/kg/h],Log BCF (rainbow trout) [L kg-1 ww],"Concentration in fish (rainbow trout; elimination phase, 97 h)","Concentration in fish (rainbow trout; elimination phase, 98 h)","Concentration in fish (rainbow trout; elimination phase, 100 h)","Concentration in fish (rainbow trout; elimination phase, 103 h)","Concentration in fish (rainbow trout; elimination phase, 120 h)","Concentration in fish (rainbow trout; elimination phase, 128 h)","Concentration in fish (rainbow trout; elimination phase, 144 h)","Concentration in fish (rainbow trout; elimination phase, 168 h)","Concentration in fish (rainbow trout; elimination phase, 192 h)","Concentration in fish (rainbow trout; elimination phase, 264 h)","Concentration in fish (rainbow trout; exposure phase, 1 h)","Concentration in fish (rainbow trout; exposure phase, 2 h)","Concentration in fish (rainbow trout; exposure phase, 3 h)","Concentration in fish (rainbow trout; exposure phase, 4 h)","Concentration in fish (rainbow trout; exposure phase, 6 h)","Concentration in fish (rainbow trout; exposure phase, 24 h)",also measured
"CCCCCCCCCCCCCOS(=O)(=O)O [C13SO4, tridecylsulfate]",31,0.074,2.29,1.53,99 ng g-1 ww and 120 ng g-1 ww and 148 ng g-1 ww,111 ng g-1 ww and 104 ng g-1 ww and 80 ng g-1 ww,104 ng g-1 ww and 78 ng g-1 ww and 80 ng g-1 ww,58 ng g-1 ww and 80 ng g-1 ww and 82 ng g-1 ww,32 ng g-1 ww and 40 ng g-1 ww and 25 ng g-1 ww,21 ng g-1 ww (2×) and 29 ng g-1 ww,14.4 ng g-1 ww and 11.1 ng g-1 ww and 13.5 ng g-1 ww,12.9 ng g-1 ww and 6.4 ng g-1 ww and 7.3 ng g-1 ww,4.0 ng g-1 ww and 4.7 ng g-1 ww and 3.9 ng g-1 ww,3.8 ng g-1 ww and 2.1 ng g-1 ww and 1.7 ng g-1 ww,34 ng g-1 ww and 28 ng g-1 ww and 54 ng g-1 ww,40 ng g-1 ww and 42 ng g-1 ww and 27 ng g-1 ww,61 ng g-1 ww and 67 ng g-1 ww and 60 ng g-1 ww,88 ng g-1 ww and 108 ng g-1 ww and 187 ng g-1 ww,139 ng g-1 ww and 132 ng g-1 ww and 97 ng g-1 ww,255 ng g-1 ww (2×) and 188 ng g-1 ww,"Concentration in fish (rainbow trout; exposure phase, 48 h): 140 ng g-1 ww and 234 ng g-1 ww and 190 ng g-1 ww; Concentration in fish (rainbow trout; exposure phase, 72 h): 201 ng g-1 ww and 154 ng g-1 ww and 128 ng g-1 ww; Concentration in fish (rainbow trout; exposure phase, 96 h): 175 ng g-1 ww and 150 ng g-1 ww and 275 ng g-1 ww; Elimination rate constant kT (rainbow trout; [4]): 0.048 (0.043–0.053) h^–1; Uptake rate constant kU (rainbow trout; [4]): 1.62 (1.38–1.91) L kg^–1 ww h^–1; diffusion coefficient (D) in the epithelial membrane of the gills (rainbow trout): 3.9 × 10^–8 m h^–1; BCF (kinetic) (rainbow trout; [5]): 34 (29–40) L kg^–1 ww; BCF (rainbow trout; [6]): 31 (16) L kg-1 ww; Elimination rate constant kT (rainbow trout; [6]): 0.053 (7) h-1; Uptake rate constant kU (rainbow trout; [6]): 1.64 (15) L kg-1 ww h-1; BCF (rainbow trout; own values): 34 L kg^–1; Log difference (baseline BCF vs BCF) [1]: 1.78 L kg-1 ww; Log baseline BCF [1]: 3.31 L kg-1 ww; log DMW, membrane-water distribution ratio [2]: 5.21; log DMLW [2]: 5.21 ^e L kg^–1"
"CCCCCCCCCCCCCCS(=O)(=O)O [C14SO3, tetradecylsulfonate]",32,0.028,0.90,1.47,113 ng g-1 ww and 118 ng g-1 ww and 164 ng g-1 ww,130 ng g-1 ww and 119 ng g-1 ww and 109 ng g-1 ww,185 ng g-1 ww and 93 ng g-1 ww and 114 ng g-1 ww,94 ng g-1 ww and 194 ng g-1 ww and 108 ng g-1 ww,62 ng g-1 ww and 81 ng g-1 ww and 50 ng g-1 ww,60 ng g-1 ww and 45 ng g-1 ww and 68 ng g-1 ww,42 ng g-1 ww and 31 ng g-1 ww and 70 ng g-1 ww,30 ng g-1 ww and 28 ng g-1 ww and 16.5 ng g-1 ww,11.9 ng g-1 ww and 8.6 ng g-1 ww and 12.7 ng g-1 ww,6.6 ng g-1 ww and 4.8 ng g-1 ww and 1.75 ng g-1 ww,38 ng g-1 ww and 7.5 ng g-1 ww and 72 ng g-1 ww,11.3 ng g-1 ww and 11.7 ng g-1 ww and 6.8 ng g-1 ww,16.0 ng g-1 ww and 19.9 ng g-1 ww and 15.9 ng g-1 ww,27 ng g-1 ww and 153 ng g-1 ww and 415 ng g-1 ww,41 ng g-1 ww and 39 ng g-1 ww and 32 ng g-1 ww,101 ng g-1 ww and 111 ng g-1 ww and 80 ng g-1 ww,"Concentration in fish (rainbow trout; exposure phase, 48 h): 152 ng g-1 ww and 155 ng g-1 ww and 117 ng g-1 ww; Concentration in fish (rainbow trout; exposure phase, 72 h): 180 ng g-1 ww and 141 ng g-1 ww and 103 ng g-1 ww; Concentration in fish (rainbow trout; exposure phase, 96 h): 168 ng g-1 ww and 150 ng g-1 ww and 178 ng g-1 ww; Elimination rate constant kT (rainbow trout; [4]): 0.024 (0.022–0.026) h^–1; Uptake rate constant kU (rainbow trout; [4]): 0.70 (0.61–0.80) L kg^–1 ww h^–1; diffusion coefficient (D) in the epithelial membrane of the gills (rainbow trout): 3.1 × 10^–8 m h^–1; BCF (kinetic) (rainbow trout; [5]): 30 (26–33) L kg^–1 ww; BCF (rainbow trout; [6]): 28 (8) L kg-1 ww; Elimination rate constant kT (rainbow trout; [6]): 0.026 (5) h-1; Uptake rate constant kU (rainbow trout; [6]): 0.73 (6) L kg-1 ww h-1; Log difference (baseline BCF vs BCF) [1]: 1.58 L kg-1 ww; Log baseline BCF [1]: 3.05 L kg-1 ww; log DMW, membrane-water distribution ratio [2]: 4.95; log DMLW [2]: 4.95 ^e L kg^–1"
